Measurements as given in patent publication US20100261662A1, “UTILIZATION OF MURAL THROMBUS FOR LOCAL DRUG DELIVERY INTO VASCULAR TISSUE” (ENDOLOGIX, INC., priority 2009, published 2010).

Tests used:
[1] = tested on: collagen contained within the vascular tissue; assay: Short-term application of catechin to vascular tissue; conditions: short-term (approximately 10-30 minute) application
From the text: Catechin can be delivered in solution form into the mural thrombus. This delivery method pathway can be used, without limitation, when a short-acting application of a high-concentration of catechin is desired. […] In some embodiments, the concentration of the agent can be in the range from approximately 0.01% to approximately 20%, or between approximately 2.0% and approximately 10.0%, or to or from any values within these ranges.

skin collagen = conditions: rats treated with catechin; cited from earlier work

Question: Which “stabilization of collagen in vascular tissue” value [1] does the source give for catechin here?
Answer: can stabilize the collagen

Question: And the “stability of skin collagen against enzymatic degradation” value (skin collagen)?
Answer: stable against enzymatic degradation
